Measured values taken from patent publication US10292391B2, “Pesticidally active 1,2,4-triazole derivatives with sulphur containing substituents” (Syngenta Participations AG, priority 2015, dated 2019).

Legend:
Type in all cases: in vivo
[1] = tested on: Spodoptera littoralis (Egyptian Cotton Leaf Worm); experiment: Activity against Spodoptera littoralis, sprayed cotton leaf discs; settings: foliar, 72 h, application rate of 200 ppm, L1 larvae, 3 days after infestation, read-out: control (at least one of mortality, anti-feedant effect, and growth inhibition)
Procedure: Cotton leaf discs were placed on agar in 24-well microtiter plates and sprayed with aqueous test solutions prepared from 10,000 ppm DMSO stock solutions. After drying the leaf discs were infested with five L1 larvae. The samples were assessed for mortality, anti-feedant effect, and growth inhibition in comparison to untreated samples 3 days after infestation. Control of Spodoptera littoralis by a test sample is when at least one of mortality, anti-feedant effect, and growth inhibition is higher than the untreated sample.

[2] = tested on: Diabrotica Balteata (Corn Root Worm); experiment: Activity against Diabrotica balteata, sprayed maize sprouts; settings: 96 h, application rate of 200 ppm, L2 larvae, 4 days after infestation, read-out: effect in at least one of the two categories (mortality or growth inhibition)
Procedure: Maize sprouts, placed on an agar layer in 24-well microtiter plates were treated with aqueous test solutions prepared from 10,000 ppm DMSO stock solutions by spraying. After drying, the plates were infested with L2 larvae (6 to 10 per well). The samples were assessed for mortality and growth inhibition in comparison to untreated samples 4 days after infestation.

[3] = tested on: Frankliniella occidentalis (Western Flower Thrips); experiment: Activity against Frankliniella occidentalis, sprayed sunflower leaf discs; settings: foliar, 168 h, application rate of 200 ppm, population of mixed ages, 7 days after infestation
Procedure: Sunflower leaf discs were placed on agar in 24-well microtiter plates and sprayed with aqueous test solutions prepared from 10,000 DMSO stock solutions. After drying the leaf discs were infested with a Frankliniella population of mixed ages. The samples were assessed for mortality 7 days after infestation.

[4] = tested on: Euschistus heros(Neotropical Brown Stink Bug); experiment: Activity against Euschistus heros, sprayed soybean leaf; settings: 120 h, application rate of 200 ppm, N-2 nymphs, 5 days after infestation, read-out: effect in at least one of the two categories (mortality or growth inhibition)
Procedure: Soybean leaf on agar in 24-well microtiter plates were sprayed with aqueous test solutions prepared from 10,000 ppm DMSO stock solutions. After drying the leaf were infested with N-2 nymphs. The samples were assessed for mortality and growth inhibition in comparison to untreated samples 5 days after infestation.

[5] = tested on: Myzus persicae (Green Peach Aphid); experiment: Activity against Myzus persicae, sprayed sunflower leaf discs; settings: foliar, 144 h, application rate of 200 ppm, aphid population of mixed ages, 6 days after infestation
Procedure: Sunflower leaf discs were placed on agar in a 24-well microtiter plate and sprayed with aqueous test solutions prepared from 10,000 ppm DMSO stock solutions. After drying, the leaf discs were infested with an aphid population of mixed ages. The samples were assessed for mortality 6 days after infestation.

[6] = tested on: Plutella xylostella (Diamond Back Moth); experiment: Activity against Plutella xylostella, treated artificial diet; settings: 120 h, application rate of 200 ppm, L2 larvae, 5 days after infestation, read-out: effect in at least one of the two categories (mortality or growth inhibition)
Procedure: 24-well microtiter plates with artificial diet were treated with aqueous test solutions prepared from 10,000 ppm DMSO stock solutions by pipetting. After drying, the plates were infested with L2 larvae (10 to 15 per well). The samples were assessed for mortality and growth inhibition in comparison to untreated samples 5 days after infestation.

[7] = tested on: Spodoptera littoralis (Egyptian Cotton Leaf Worm); experiment: Activity against Spodoptera littoralis, systemic via lettuce grown on treated agar; settings: 144 h, test rate of 12.5 ppm, root uptake by lettuce, 6 days after infestation, read-out: effect in at least one of the three categories (mortality, anti-feedancy, or growth inhibition)
Text: Test compounds were applied by pipette from 10,000 ppm DMSO stock solutions into 24-well plates and mixed with agar. Lettuce seeds were placed on the agar and the multi well plate was closed by another plate which contains also agar. After 7 days the roots have absorbed the compound and the lettuce has grown into the lid plate. The lettuce leafs were now cut off into the lid plate. Spodoptera eggs were pipetted through a plastic stencil on a humid gel blotting paper and the plate closed with it. The samples were assessed for mortality, anti-feedant effect and growth inhibition in comparison to untreated samples 6 days after infestation.

CCSc1cc(-c2ccc(Cl)cc2)cnc1-c1nnc(-c2cc(C(F)(F)F)ccn2)n1C [Compound P1, 5-(4-chlorophenyl)-3-ethylsulfanyl-2-[4-methyl-5-[4-(trifluoromethyl)-2-pyridyl]-1,2,4-triazol-3-yl]pyridine]
≥ 80%: mortality at 200 ppm [1] | percent effect (mortality or growth inhibition) at 200 ppm [2]

CCS(=O)(=O)c1cc(-c2ccc(Cl)cc2)cnc1-c1nnc(-c2cc(C(F)(F)F)ccn2)n1C [Compound P2, 5-(4-chlorophenyl)-3-ethylsulfonyl-2-[4-methyl-5-[4-(trifluoromethyl)-2-pyridyl]-1,2,4-triazol-3-yl]pyridine]
≥ 80%: mortality at 200 ppm [1] | percent effect (mortality or growth inhibition) at 200 ppm [2]

CCSc1cc(-n2cccn2)cnc1-c1nnc(-c2cc(C(F)(F)F)ccn2)n1C [Compound P3, 3-ethylsulfanyl-2-[4-methyl-5-[4-(trifluoromethyl)-2-pyridyl]-1,2,4-triazol-3-yl]-5-pyrazol-1-yl-pyridine]
≥ 80%: mortality at 200 ppm [3] | percent effect (mortality or growth inhibition) at 200 ppm [4]

CCS(=O)(=O)c1cc(-n2cccn2)cnc1-c1nnc(-c2cc(C(F)(F)F)ccn2)n1C [Compound P4, 3-ethylsulfonyl-2-[4-methyl-5-[4-(trifluoromethyl)-2-pyridyl]-1,2,4-triazol-3-yl]-5-pyrazol-1-yl-pyridine]
≥ 80%: mortality at 200 ppm [1] | mortality at 200 ppm [5] | percent effect (mortality or growth inhibition) at 200 ppm [4]

CCSc1cc(-n2cc(C(F)(F)F)cn2)cnc1-c1nnc(-c2cc(C(F)(F)F)ccn2)n1C [Compound P5]
≥ 80%: percent effect (mortality or growth inhibition) at 200 ppm [2]

CCSc1cc(-c2ncccn2)cnc1-c1nnc(-c2cc(C(F)(F)F)ccn2)n1C [Compound P8]
≥ 80%: percent effect (mortality or growth inhibition) at 200 ppm [6] | percent effect (mortality or growth inhibition) at 200 ppm [2] | mortality at 200 ppm [3]

CCS(=O)(=O)c1cc(-c2ccc(C(F)(F)F)cc2)cnc1-c1nnc(-c2cc(C(F)(F)F)ccn2)n1C [Compound P11]
≥ 80%: mortality at 200 ppm [1] | percent effect (mortality or growth inhibition) at 200 ppm [6] | percent effect (mortality or growth inhibition) at 200 ppm [2] | mortality at 200 ppm [5] | percent effect (mortality or growth inhibition) at 200 ppm [4]

CCS(=O)(=O)c1cc(-n2ccc(C#N)n2)cnc1-c1nnc(-c2cc(C(F)(F)F)ccn2)n1C [Compound P16]
≥ 80%: mortality at 200 ppm [1] | percent control (mortality, anti-feedancy or growth inhibition) at 12.5 ppm [7] | percent effect (mortality or growth inhibition) at 200 ppm [6] | percent effect (mortality or growth inhibition) at 200 ppm [2] | mortality at 200 ppm [5]

CCS(=O)(=O)c1cc(-c2ncc(Cl)cn2)cnc1-c1nnc(-c2cc(C(F)(F)F)ccn2)n1C [Compound P18]
≥ 80%: mortality at 200 ppm [1] | percent effect (mortality or growth inhibition) at 200 ppm [2]

CCS(=O)(=O)c1cc(-c2ncc(C#N)cn2)cnc1-c1nnc(-c2cc(C(F)(F)F)ccn2)n1C [Compound P20]
≥ 80%: mortality at 200 ppm [1] | percent control (mortality, anti-feedancy or growth inhibition) at 12.5 ppm [7] | percent effect (mortality or growth inhibition) at 200 ppm [6] | percent effect (mortality or growth inhibition) at 200 ppm [2] | mortality at 200 ppm [5] | percent effect (mortality or growth inhibition) at 200 ppm [4]

CCS(=O)(=O)c1cc(-c2cccc(C#N)n2)cnc1-c1nnc(-c2cc(C(F)(F)F)ccn2)n1C [Compound P21]
≥ 80%: mortality at 200 ppm [1] | percent control (mortality, anti-feedancy or growth inhibition) at 12.5 ppm [7] | percent effect (mortality or growth inhibition) at 200 ppm [6] | percent effect (mortality or growth inhibition) at 200 ppm [2] | mortality at 200 ppm [5] | mortality at 200 ppm [3] | percent effect (mortality or growth inhibition) at 200 ppm [4]

CCS(=O)(=O)c1cc(-c2cccc(Cl)n2)cnc1-c1nnc(-c2cc(C(F)(F)F)ccn2)n1C [Compound P24, 5-(6-chloro-2-pyridyl)-3-ethylsulfonyl-2-[4-methyl-5-[4-(trifluoromethyl)-2-pyridyl]-1,2,4-triazol-3-yl]pyridine]
≥ 80%: mortality at 200 ppm [1] | percent effect (mortality or growth inhibition) at 200 ppm [6] | percent effect (mortality or growth inhibition) at 200 ppm [2] | percent effect (mortality or growth inhibition) at 200 ppm [4]

CCS(=O)(=O)c1cc(-n2ccc(Cl)n2)cnc1-c1nnc(-c2cc(C(F)(F)F)ccn2)n1C [Compound P28]
≥ 80%: mortality at 200 ppm [1] | percent control (mortality, anti-feedancy or growth inhibition) at 12.5 ppm [7] | percent effect (mortality or growth inhibition) at 200 ppm [6] | percent effect (mortality or growth inhibition) at 200 ppm [2] | mortality at 200 ppm [5] | mortality at 200 ppm [3] | percent effect (mortality or growth inhibition) at 200 ppm [4]

CCS(=O)(=O)c1cc(SC(F)(F)F)cnc1-c1nnc(-c2cc(C(F)(F)F)ccn2)n1C [Compound P34, 3-ethylsulfonyl-2-[4-methyl-5-[4-(trifluoromethyl)-2-pyridyl]-1,2,4-triazol-3-yl]-5-(trifluoromethylsulfanyl)pyridine]
≥ 80%: percent effect (mortality or growth inhibition) at 200 ppm [2] | mortality at 200 ppm [5]

CCS(=O)(=O)c1cc(S(=O)(=O)C(F)(F)F)cnc1-c1nnc(-c2cc(C(F)(F)F)ccn2)n1C [Compound P35, 3-ethylsulfonyl-2-[4-methyl-5-[4-(trifluoromethyl)-2-pyridyl]-1,2,4-triazol-3-yl]-5-(trifluoromethylsulfonyl)pyridine]
≥ 80%: mortality at 200 ppm [1] | percent effect (mortality or growth inhibition) at 200 ppm [6] | percent effect (mortality or growth inhibition) at 200 ppm [2]

CCS(=O)(=O)c1ccc(C2CC2)nc1-c1nnc(-c2cc(C(F)(F)F)ccn2)n1C [Compound P38]
≥ 80%: mortality at 200 ppm [1] | percent effect (mortality or growth inhibition) at 200 ppm [6] | percent effect (mortality or growth inhibition) at 200 ppm [2]

CCS(=O)(=O)c1ccc(-c2cccc(F)c2)nc1-c1nnc(-c2cc(C(F)(F)F)ccn2)n1C [Compound P50, 3-ethylsulfonyl-6-(3-fluorophenyl)-2-[4-methyl-5-[4-(trifluoromethyl)-2-pyridyl]-1,2,4-triazol-3-yl]pyridine]
≥ 80%: mortality at 200 ppm [1] | percent control (mortality, anti-feedancy or growth inhibition) at 12.5 ppm [7] | percent effect (mortality or growth inhibition) at 200 ppm [6] | percent effect (mortality or growth inhibition) at 200 ppm [2] | mortality at 200 ppm [5] | mortality at 200 ppm [3] | percent effect (mortality or growth inhibition) at 200 ppm [4]

CCS(=O)(=O)c1cc(-c2cccc(F)c2)cnc1-c1nnc(-c2cc(C(F)(F)F)ncn2)n1C [Compound P52]
≥ 80%: mortality at 200 ppm [1] | percent control (mortality, anti-feedancy or growth inhibition) at 12.5 ppm [7] | percent effect (mortality or growth inhibition) at 200 ppm [6] | percent effect (mortality or growth inhibition) at 200 ppm [2] | mortality at 200 ppm [5] | mortality at 200 ppm [3] | percent effect (mortality or growth inhibition) at 200 ppm [4]

CCS(=O)(=O)c1cc(-c2cccc(F)c2)cnc1-c1nnc(-c2cc(C(F)(F)F)ccn2)n1C [Compound P53]
≥ 80%: mortality at 200 ppm [1] | percent effect (mortality or growth inhibition) at 200 ppm [6] | percent effect (mortality or growth inhibition) at 200 ppm [2]
